Drawing on patent US20240300976A1, “COMPOUNDS AS MODULATORS OF ENDOPLASMIC RETICULUM AMINOPEPTIDASE 1 (ERAP1)” (GREY WOLF THERAPEUTICS LIMITED, priority 2020, published 2024), this text covers IC50 for 23 molecules.

pIC50: −log10 of the molar value.

T1 sequence (Q9NZ08 37-941): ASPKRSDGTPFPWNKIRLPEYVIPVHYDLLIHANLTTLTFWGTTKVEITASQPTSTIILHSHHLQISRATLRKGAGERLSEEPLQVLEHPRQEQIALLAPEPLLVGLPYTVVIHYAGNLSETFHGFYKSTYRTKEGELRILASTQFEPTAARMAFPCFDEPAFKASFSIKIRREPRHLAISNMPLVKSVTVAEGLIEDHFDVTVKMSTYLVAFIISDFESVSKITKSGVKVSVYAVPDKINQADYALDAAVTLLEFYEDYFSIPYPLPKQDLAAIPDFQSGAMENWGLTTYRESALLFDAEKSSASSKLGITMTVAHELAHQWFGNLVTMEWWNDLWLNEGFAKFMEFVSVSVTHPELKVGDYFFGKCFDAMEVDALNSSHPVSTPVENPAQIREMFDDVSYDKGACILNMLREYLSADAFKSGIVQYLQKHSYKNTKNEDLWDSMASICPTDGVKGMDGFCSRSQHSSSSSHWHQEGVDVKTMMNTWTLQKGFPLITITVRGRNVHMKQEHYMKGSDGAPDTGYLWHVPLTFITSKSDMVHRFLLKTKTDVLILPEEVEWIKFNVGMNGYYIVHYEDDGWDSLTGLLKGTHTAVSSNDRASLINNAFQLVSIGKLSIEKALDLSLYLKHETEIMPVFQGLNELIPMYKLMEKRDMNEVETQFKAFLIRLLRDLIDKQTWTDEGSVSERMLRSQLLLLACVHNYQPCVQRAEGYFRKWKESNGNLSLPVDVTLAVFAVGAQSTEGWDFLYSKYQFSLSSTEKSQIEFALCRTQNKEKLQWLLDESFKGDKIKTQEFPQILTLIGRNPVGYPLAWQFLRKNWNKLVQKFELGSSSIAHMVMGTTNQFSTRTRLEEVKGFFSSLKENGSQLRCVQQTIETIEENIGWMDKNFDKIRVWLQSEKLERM

The assay addresses T1, ERAP1 (Homo sapiens, UniProt Q9NZ08).
T1 construct: Purified ERAP1(37-941)-10His (ERAP1); 10His (C)
In words: ERAP1 mediated hydrolysis of an amide substrate (10-mer inhibition assay), biochemical system. The settings on record: 10-mer substrate, incubated at 23° C. for 1 h, excitation 279 nm and emission 355 nm; read-out: IC50 vs Decapeptide WRVYEKC(Dnp)ALK-acid (where Dnp is Dinitrophenyl maleimide) (10-mer). The source says: This peptide has minimal fluorescence as the N-terminal tryptophan residue's fluorescence is quenched by the dinitrophenol (DNP) residue within the peptide. However, as ERAP1 hydrolyses the N-terminal amide bond and tryptophan is released this internal quenching is lost and the reaction is monitored by the increase in tryptophan fluorescence over the course of the assay. For the purposes of this application this assay is referred to as the “1 Omer inhibition assay” and compound potencies are calculated and expressed as 1050 as would be familiar to a person skilled in the art.
Biological Assay 1: ERAP1 Mediated Hydrolysis of an Amide Substrate Measured in a Biochemical System
• 1× Assay buffer (AB): 25 mM Bis-tris propane, 0.05% w/v Hydroxypropylmethylcellulose pH 7.75 made with Optima grade water • Decapeptide WRVYEKC(Dnp)ALK-acid (where Dnp is Dinitrophenyl maleimide) (10-mer) • L-Leucine 7-amido-4-methylcoumarin (L-AMC) • Purified ERAP1(37-941)-10His (ERAP1)
12.5 μL ERAP1 enzyme in 1×AB was combined with 250 nL test compound in DMSO. 12.5 μL of either 240 μM L-AMC in 1×AB or 100 μM 10-mer in 1×AB was added to the reaction and incubated at 23° C. for 1 h. For detection, plates were read at excitation 365 nm and emission 442 nm (L-AMC) or excitation 279 nm and emission 355 nm (10-mer). Compound IC50 was determined using a 4-parameter equation.
Take `N#Cc1cc2c(cc1Cl)N1CCCCC1/C=C/COc1ccc(C(=O)O)cc1S(=O)(=O)N2` (racemic) [Example 35, (E)-3-chloro-2-cyano-6,7,8,9,9a,12-hexahydro-19H-dibenzo[b,f]pyrido[1,2-h][1]oxa[4]thia[5,8]diazacyclododecine-16-carboxylic acid 18,18-dioxide]: the pIC50 (commonly the IC50 on a negative log10 scale, so that one unit is a factor of ten) is over 6.60. For the molecule `N#Cc1ccc2c(c1)NS(=O)(=O)c1cc(C(=O)O)ccc1OCCCC1CCCCN21` (single isomer, unassigned) [Example 9, 2-cyano-6,7,8,9,9a,10,11,12-octahydro-19H-dibenzo[b,f]pyrido[1,2-h][1]oxa[4]thia[5,8]diazacyclododecine-16-carboxylic acid 18,18-dioxide], the negative logarithm of the IC50 (pIC50) is over 6.60. Take `CS(=O)(=O)c1cc2c(cc1F)N1CCCCC1COc1ccc(C(=O)O)cc1S(=O)(=O)N2` (single isomer, unassigned) [Example 40, 9-fluoro-8-(methylsulfonyl)-12,13,14,15,15a,16-hexahydro-6H-dibenzo[b,f]pyrido[1,2-h][1,4,5,8]oxathiadiazecine-3-carboxylic acid 5,5-dioxide]: the pIC50 was under 6.00. On to `CS(=O)(=O)c1ccc2c(c1)NS(=O)(=O)c1cc(C(=O)O)ccc1OCC1CCCCN21` (single isomer, unassigned) [Example 19, 8-(methylsulfonyl)-12,13,14,15,15a,16-hexahydro-6H-dibenzo[b,f]pyrido[1,2-h][1,4,5,8]oxathiadiazecine-3-carboxylic acid 5,5-dioxide], for which the pIC50 is over 6.60.

For `CS(=O)(=O)c1ccc2c(c1)NS(=O)(=O)c1cc(C(=O)O)ccc1OCC1CCCCN21` (single isomer, unassigned) [Example 20, 8-(methylsulfonyl)-12,13,14,15,15a,16-hexahydro-6H-dibenzo[b,f]pyrido[1,2-h][1,4,5,8]oxathiadiazecine-3-carboxylic acid 5,5-dioxide], the pIC50 is under 6.00. The figure for “3-chloro-2-(1H-tetrazol-1-yl)-7,8,9,9a,10,11,12,13-octahydro-6H, 20H-dibenzo[b,f]pyrido[1,2-h][1]oxa[4]thia[5,8]diazacyclotridecine-17-carboxylic acid 19,19-dioxide [Example 54]” is over 6.60; for `CS(=O)(=O)NC(=O)c1ccc2c(c1)S(=O)(=O)Nc1cc(C#N)c(Cl)cc1N1CCCC[C@H]1CCCO2` [Example 64, (S)-3-chloro-2-cyano-N-(methylsulfonyl)-6,7,8,9,9a,10,11,12-octahydro-19H-dibenzo[b,f]pyrido[1,2-h][1]oxa[4]thia[5,8]diazacyclododecine-16-carboxamide 18,18-dioxide] it is under 6.00. Take `N#Cc1cc2c(cc1Cl)N1CCCCC1COc1ccc(C(=O)O)cc1S(=O)(=O)N2` (single isomer, unassigned) [Example 16, 9-chloro-8-cyano-12,13,14,15,15a,16-hexahydro-6H-dibenzo[b,f]pyrido[1,2-h][1,4,5,8]oxathiadiazecine-3-carboxylic acid 5,5-dioxide]: the negative logarithm of the IC50 (pIC50) was under 6.00. As for `N#Cc1cc2c(cc1Cl)N1CCCCC1/C=C/COc1ccc(C(=O)O)cc1S(=O)(=O)N2` (single isomer, unassigned) [Example 48, (E)-3-chloro-2-cyano-6,7,8,9,9a,12-hexahydro-19H-dibenzo[b,f]pyrido[1,2-h][1]oxa[4]thia[5,8]diazacyclododecine-16-carboxylic acid 18,18-dioxide], the pIC50 is over 6.60. The value for `CS(=O)(=O)NC(=O)c1ccc2c(c1)S(=O)(=O)Nc1cc(C#N)c(F)cc1N1CCCC[C@H]1CCCCO2` [Example 63, (S)-2-cyano-3-fluoro-N-(methylsulfonyl)-7,8,9,9a,10,11,12,13-octahydro-6H, 20H-dibenzo[b,f]pyrido[1,2-h][1]oxa[4]thia[5,8]diazacyclotridecine-17-carboxamide 19,19-dioxide] was under 6.00; that for `N#Cc1cc2c(cc1Cl)N1CCCCC1COCCOc1ccc(C(=O)O)cc1S(=O)(=O)N2` (racemic) [Example 65, 3-chloro-2-cyano-6,7,8,9,9a,10,12,13-octahydro-20H-dibenzo[e,i]pyrido[1,2-k][1,4]dioxa[7]thia[8,11]diazacyclotridecine-17-carboxylic acid 19,19-dioxide] was over 6.60; that for `CS(=O)(=O)c1cc2c(cc1F)N1CCCCC1COc1ccc(C(=O)O)cc1S(=O)(=O)N2` (racemic) [Example 25, 9-fluoro-8-(methylsulfonyl)-12,13,14,15,15a,16-hexahydro-6H-dibenzo[b,f]pyrido[1,2-h][1,4,5,8]oxathiadiazecine-3-carboxylic acid 5,5-dioxide] was over 6.60. With `N#Cc1ccc2c(c1)NS(=O)(=O)c1cc(C(=O)O)ccc1OCCCC1CCCCN21` (centres unmarked) [Example 5, 2-cyano-6,7,8,9,9a,10,11,12-octahydro-19H-dibenzo[b,f]pyrido[1,2-h][1]oxa[4]thia[5,8]diazacyclododecine-16-carboxylic acid 18,18-dioxide], the negative logarithm of the IC50 (pIC50) is over 6.60. The figure for `N#Cc1ccc2c(c1)NS(=O)(=O)c1cc(C(=O)O)ccc1OCC1CCCCN21` (single isomer, unassigned) [Example 10, 8-cyano-12,13,14,15,15a,16-hexahydro-6H-dibenzo[b,f]pyrido[1,2-h][1,4,5,8]oxathiadiazecine-3-carboxylic acid 5,5-dioxide] is over 6.60; for `N#Cc1cc2c(cc1F)N1CCCCC1CCCCOc1ccc(C(=O)O)cc1S(=O)(=O)N2` (single isomer, unassigned) [Example 55, 2-cyano-3-fluoro-7,8,9,9a,10,11,12,13-octahydro-6H,20H-dibenzo[b,f]pyrido[1,2-h][1]oxa[4]thia[5,8]diazacyclotridecine-17-carboxylic acid 19,19-dioxide] it is over 6.60; for `N#Cc1cc2c(cc1F)N1CCCC[C@H]1CCCCOc1ccc(C(=O)O)cc1S(=O)(=O)N2` [Example 57, (S)-2-cyano-3-fluoro-7,8,9,9a,10,11,12,13-octahydro-6H, 20H-dibenzo[b,f]pyrido[1,2-h][1]oxa[4]thia[5,8]diazacyclotridecine-17-carboxylic acid 19,19-dioxide] it is over 6.60.

`N#Cc1ccc2c(c1)NS(=O)(=O)c1cc(C(=O)O)ccc1OCC1CCCCN21` (racemic) [Example 3, 8-cyano-12,13,14,15,15a,16-hexahydro-6H-dibenzo[b,f]pyrido[1,2 h][1,4,5,8]oxathiadiazecine-3-carboxylic acid 5,5-dioxide]: the pIC50 is over 6.60. For the molecule `N#Cc1cc2c(cc1Cl)N1CCCC[C@H]1COCCCc1ccc(C(=O)O)cc1S(=O)(=O)N2` [Example 73, (S)-3-chloro-2-cyano-6,7,8,9,9a,10,13,14-octahydro-12H, 20H-dibenzo[e,i]pyrido[2,1-c][1]oxa[8]thia[4,7]diazacyclotridecine-17-carboxylic acid 19,19-dioxide], the pIC50 is over 6.60. The figure for `N#Cc1cc2c(cc1Cl)N1CCCC[C@H]1CCCOc1ccc(C(=O)O)cc1S(=O)(=O)N2` [Example 60, (S)-3-chloro-2-cyano-6,7,8,9,9a,10,11,12-octahydro-19H-dibenzo[b,f]pyrido[1,2-h][1]oxa[4]thia[5,8]diazacyclododecine-16-carboxylic acid 18,18-dioxide] is over 6.60. On to `CS(=O)(=O)c1ccc2c(c1)NS(=O)(=O)c1cc(C(=O)O)ccc1OCCCC1CCCCN21` (single isomer, unassigned) [Example 50, 2-(methylsulfonyl)-6,7,8,9,9a,10,11,12-octahydro-19H-dibenzo[b,f]pyrido[1,2-h][1]oxa[4]thia[5,8]diazacyclododecine-16-carboxylic acid 18,18-dioxide], for which the pIC50 was 6.00 to 6.60. The figure for `N#Cc1cc2c(cc1Cl)N1CCCC[C@H]1CCC/C=C/c1ccc(C(=O)O)cc1S(=O)(=O)N2` [Example 71, (R,E)-3-chloro-2-cyano-6,7,8,9,9a,10,11,12-octahydro-20H-dibenzo[c,l]pyrido[1,2-e][1]thia[2,5]diazacyclotridecine-17-carboxylic acid 19,19-dioxide] is 6.00 to 6.60.

As for `CS(=O)(=O)c1ccc2c(c1)NS(=O)(=O)c1cc(C(=O)O)ccc1OCCCCC1CCCCN21` (racemic) [Example 23, 2-(methylsulfonyl)-7,8,9,9a,10,11,12,13-octahydro-6H, 20H-dibenzo[b,f]pyrido[1,2-h][1]oxa[4]thia[5,8]diazacyclotridecine-17-carboxylic acid 19,19-dioxide], the pIC50 is 6.00 to 6.60. Take `N#Cc1cc2c(cc1Cl)N1CCCCC1CCCOc1ccc(C(=O)O)cc1S(=O)(=O)N2` (racemic) [Example 21, 3-chloro-2-cyano-6,7,8,9,9a,10,11,12-octahydro-19H-dibenzo[b,f]pyrido[1,2-h][1]oxa[4]thia[5,8]diazacyclododecine-16-carboxylic acid 18,18-dioxide]: the pIC50 is over 6.60.
